Data published in ChEMBL document CHEMBL1201862, “PubChem BioAssay data set” (2004).
Active and inactive are the calls of the source.

Assays:
[1] = luciferase reporter signal suppression in cells – H4 neuroglioma cells, luminescence, dose response (AID 1990); assay type: functional, cell-based
[2] = Luminescence Cell-Based Dose Response HTS to Identify Inhibitors of 5'UTR Stem-Loop Driven Prion Protein mRNA Translation in H4 Neuroglioblastoma Cells. [Related pubchem assays: 1827 (Project Summary), 1813 (Primary HTS)]; assay type: functional
[3] = alpha-synuclein stem-loop luciferase translation blockers – H4 neuroglioma cells, luminescence, confirmation (AID 1988); assay type: functional, cell-based
[4] = general mammalian cell viability loss – activator set, cherry-pick, cytotoxicity control for miR-122 modulator project, dose response (AID 720690); assay type: functional, cell-based;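 further: HEK293T human cells scored for general mammalian cytotoxicity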
[5] = molecular target: T1, Sentrin-specific protease 8 (Homo sapiens, UniProt Q96LD8); assay type: functional
T1 sequence (Q96LD8 whole entry): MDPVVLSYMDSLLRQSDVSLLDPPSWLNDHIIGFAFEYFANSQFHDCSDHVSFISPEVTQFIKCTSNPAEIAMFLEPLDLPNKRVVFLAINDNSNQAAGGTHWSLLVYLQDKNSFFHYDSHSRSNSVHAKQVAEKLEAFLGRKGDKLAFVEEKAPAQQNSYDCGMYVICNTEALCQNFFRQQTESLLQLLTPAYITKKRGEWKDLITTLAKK

[6] = molecular target: T1, Sentrin-specific protease 8; assay type: functional; remark: listed apart in the source
[7] = molecular target: SWI/SNF-related matrix-associated actin-dependent regulator of chromatin subfamily A member 2 (Homo sapiens, UniProt P51531); assay: Luminescence-based cell-based high throughput dose response assay to identify activators of the function of SWI/SNF related, matrix associated, actin dependent regulator of chromatin, subfamily a, member 2 (SMARCA2, BRM).; assay type: functional
Sequence of SWI/SNF-related matrix-associated actin-dependent regulator of chromatin subfamily A member 2 (P51531 whole entry): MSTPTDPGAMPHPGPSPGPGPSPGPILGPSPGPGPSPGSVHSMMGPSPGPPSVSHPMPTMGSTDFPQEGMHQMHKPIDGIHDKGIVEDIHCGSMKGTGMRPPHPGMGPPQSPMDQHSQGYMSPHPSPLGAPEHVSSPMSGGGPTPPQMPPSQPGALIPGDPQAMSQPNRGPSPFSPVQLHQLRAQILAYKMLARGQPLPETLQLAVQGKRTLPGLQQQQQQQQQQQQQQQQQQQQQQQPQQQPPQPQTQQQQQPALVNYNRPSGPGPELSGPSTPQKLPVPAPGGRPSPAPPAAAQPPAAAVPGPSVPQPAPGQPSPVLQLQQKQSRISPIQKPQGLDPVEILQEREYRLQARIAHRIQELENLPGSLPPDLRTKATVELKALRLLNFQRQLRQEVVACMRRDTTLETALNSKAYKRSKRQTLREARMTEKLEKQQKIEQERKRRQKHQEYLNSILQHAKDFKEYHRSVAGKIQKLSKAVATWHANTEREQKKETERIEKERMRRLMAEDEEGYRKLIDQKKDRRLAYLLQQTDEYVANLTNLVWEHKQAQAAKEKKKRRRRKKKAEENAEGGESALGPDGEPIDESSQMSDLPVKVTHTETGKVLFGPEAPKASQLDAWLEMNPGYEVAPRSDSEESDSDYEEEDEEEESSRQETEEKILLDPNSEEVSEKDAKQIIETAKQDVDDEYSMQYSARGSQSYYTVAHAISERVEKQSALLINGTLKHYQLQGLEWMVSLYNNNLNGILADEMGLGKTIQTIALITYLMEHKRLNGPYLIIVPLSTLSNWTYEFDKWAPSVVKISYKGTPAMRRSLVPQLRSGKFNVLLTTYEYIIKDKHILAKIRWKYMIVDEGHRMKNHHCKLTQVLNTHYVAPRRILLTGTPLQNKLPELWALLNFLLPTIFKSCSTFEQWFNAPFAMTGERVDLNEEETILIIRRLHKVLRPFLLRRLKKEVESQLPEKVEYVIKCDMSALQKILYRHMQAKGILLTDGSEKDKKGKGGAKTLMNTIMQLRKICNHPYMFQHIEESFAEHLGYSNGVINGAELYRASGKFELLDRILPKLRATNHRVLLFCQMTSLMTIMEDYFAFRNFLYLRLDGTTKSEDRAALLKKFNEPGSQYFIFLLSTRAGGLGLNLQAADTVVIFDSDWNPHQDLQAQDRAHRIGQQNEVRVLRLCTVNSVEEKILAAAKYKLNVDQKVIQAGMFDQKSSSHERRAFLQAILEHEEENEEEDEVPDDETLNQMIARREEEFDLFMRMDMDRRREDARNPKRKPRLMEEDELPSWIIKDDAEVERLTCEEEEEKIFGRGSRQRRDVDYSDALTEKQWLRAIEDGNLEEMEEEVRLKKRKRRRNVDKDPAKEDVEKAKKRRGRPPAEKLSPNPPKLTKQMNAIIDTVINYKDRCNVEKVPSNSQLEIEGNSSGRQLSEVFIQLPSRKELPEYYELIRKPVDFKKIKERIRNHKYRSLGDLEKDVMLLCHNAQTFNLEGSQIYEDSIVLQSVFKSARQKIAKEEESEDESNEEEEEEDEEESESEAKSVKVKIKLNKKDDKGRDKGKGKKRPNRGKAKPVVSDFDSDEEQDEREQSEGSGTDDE

[8] = Counterscreen for activators of the function of SWI/SNF related, matrix associated, actin dependent regulator of chromatin, subfamily a, member 2 (SMARCA2, BRM): Luminescence-based cell-based high throughput dose response assay to identify non-selective compounds using the VP16 reporter assay.; assay type: functional
[9] = molecular target: T2, Histone-lysine N-methyltransferase NSD2 (Homo sapiens, UniProt O96028); assay type: biochemical
T2 sequence (O96028 whole entry): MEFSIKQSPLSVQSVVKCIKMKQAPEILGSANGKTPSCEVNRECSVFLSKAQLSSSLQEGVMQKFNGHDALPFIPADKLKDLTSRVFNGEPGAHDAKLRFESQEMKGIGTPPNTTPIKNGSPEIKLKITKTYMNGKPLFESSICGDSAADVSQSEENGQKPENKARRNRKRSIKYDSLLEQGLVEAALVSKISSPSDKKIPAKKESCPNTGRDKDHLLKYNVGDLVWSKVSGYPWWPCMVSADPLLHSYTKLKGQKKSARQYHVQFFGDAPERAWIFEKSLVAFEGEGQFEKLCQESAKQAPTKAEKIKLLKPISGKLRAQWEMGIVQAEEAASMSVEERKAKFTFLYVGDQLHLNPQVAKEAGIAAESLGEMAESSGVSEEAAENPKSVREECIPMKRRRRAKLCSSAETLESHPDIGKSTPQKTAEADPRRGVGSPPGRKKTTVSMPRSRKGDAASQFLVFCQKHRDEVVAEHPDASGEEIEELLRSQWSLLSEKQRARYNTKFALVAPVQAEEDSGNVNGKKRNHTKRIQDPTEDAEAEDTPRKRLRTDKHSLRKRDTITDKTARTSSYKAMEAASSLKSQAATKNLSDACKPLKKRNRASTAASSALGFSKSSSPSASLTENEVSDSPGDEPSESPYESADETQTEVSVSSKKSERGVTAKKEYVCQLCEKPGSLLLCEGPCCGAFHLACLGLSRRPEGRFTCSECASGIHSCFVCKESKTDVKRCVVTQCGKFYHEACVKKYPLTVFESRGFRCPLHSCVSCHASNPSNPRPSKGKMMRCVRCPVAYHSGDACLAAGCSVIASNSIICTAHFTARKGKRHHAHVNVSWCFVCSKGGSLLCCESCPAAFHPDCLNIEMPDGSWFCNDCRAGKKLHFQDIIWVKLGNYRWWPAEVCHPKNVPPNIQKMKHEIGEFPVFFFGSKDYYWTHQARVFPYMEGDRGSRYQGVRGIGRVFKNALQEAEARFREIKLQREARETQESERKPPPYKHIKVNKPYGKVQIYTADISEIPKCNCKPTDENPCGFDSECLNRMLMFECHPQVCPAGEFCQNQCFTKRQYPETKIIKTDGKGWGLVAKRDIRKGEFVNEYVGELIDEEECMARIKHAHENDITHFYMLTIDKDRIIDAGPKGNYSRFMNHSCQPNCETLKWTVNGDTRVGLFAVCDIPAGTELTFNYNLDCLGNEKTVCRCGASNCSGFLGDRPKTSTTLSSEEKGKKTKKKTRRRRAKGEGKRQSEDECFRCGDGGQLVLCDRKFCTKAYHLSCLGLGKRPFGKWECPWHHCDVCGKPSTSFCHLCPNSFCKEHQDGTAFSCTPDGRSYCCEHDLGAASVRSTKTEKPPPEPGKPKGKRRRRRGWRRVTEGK

[10] = molecular target: T3, Replicative DNA helicase DnaB (Mycobacterium tuberculosis, UniProt P9WMR3); assay: DnaB intein splicing inhibitors, dose response, biochemical, cell-free fluorescence (AID 449749); assay type: functional
T3 sequence (P9WMR3 whole entry): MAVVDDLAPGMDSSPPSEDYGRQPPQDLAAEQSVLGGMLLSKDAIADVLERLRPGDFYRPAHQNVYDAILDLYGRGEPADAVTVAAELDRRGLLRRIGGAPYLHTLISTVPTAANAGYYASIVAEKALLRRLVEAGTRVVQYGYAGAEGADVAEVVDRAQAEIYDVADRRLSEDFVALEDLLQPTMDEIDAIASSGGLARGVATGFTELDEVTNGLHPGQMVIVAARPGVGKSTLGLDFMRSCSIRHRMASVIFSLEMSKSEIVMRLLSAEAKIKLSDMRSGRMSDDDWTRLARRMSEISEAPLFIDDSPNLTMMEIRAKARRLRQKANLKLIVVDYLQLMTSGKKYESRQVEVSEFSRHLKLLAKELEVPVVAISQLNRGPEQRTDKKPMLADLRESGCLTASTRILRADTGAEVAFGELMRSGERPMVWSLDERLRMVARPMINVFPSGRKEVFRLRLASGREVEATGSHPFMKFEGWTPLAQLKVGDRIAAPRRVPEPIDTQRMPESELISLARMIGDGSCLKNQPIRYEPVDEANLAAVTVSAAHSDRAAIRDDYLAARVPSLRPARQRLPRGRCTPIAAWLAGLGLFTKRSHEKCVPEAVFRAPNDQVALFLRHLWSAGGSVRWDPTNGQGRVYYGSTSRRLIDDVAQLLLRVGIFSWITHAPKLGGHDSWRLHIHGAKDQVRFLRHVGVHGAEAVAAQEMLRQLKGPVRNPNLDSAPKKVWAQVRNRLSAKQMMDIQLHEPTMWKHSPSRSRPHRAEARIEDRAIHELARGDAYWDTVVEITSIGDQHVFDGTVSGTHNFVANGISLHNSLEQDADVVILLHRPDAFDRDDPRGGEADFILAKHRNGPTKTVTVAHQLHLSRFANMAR

Protein RecA = molecular target: T4, Protein RecA (Mycobacterium tuberculosis, UniProt P9WHJ3); assay: Fluorescence Cell-Free Homogeneous Dose Retest to Identify Inhibitors of RecA-Intein Splicing Activity. [Related pubchem assays (depositor defined):AID2097, AID2223, AID489010, AID492950]; assay type: functional
T4 sequence (P9WHJ3 whole entry): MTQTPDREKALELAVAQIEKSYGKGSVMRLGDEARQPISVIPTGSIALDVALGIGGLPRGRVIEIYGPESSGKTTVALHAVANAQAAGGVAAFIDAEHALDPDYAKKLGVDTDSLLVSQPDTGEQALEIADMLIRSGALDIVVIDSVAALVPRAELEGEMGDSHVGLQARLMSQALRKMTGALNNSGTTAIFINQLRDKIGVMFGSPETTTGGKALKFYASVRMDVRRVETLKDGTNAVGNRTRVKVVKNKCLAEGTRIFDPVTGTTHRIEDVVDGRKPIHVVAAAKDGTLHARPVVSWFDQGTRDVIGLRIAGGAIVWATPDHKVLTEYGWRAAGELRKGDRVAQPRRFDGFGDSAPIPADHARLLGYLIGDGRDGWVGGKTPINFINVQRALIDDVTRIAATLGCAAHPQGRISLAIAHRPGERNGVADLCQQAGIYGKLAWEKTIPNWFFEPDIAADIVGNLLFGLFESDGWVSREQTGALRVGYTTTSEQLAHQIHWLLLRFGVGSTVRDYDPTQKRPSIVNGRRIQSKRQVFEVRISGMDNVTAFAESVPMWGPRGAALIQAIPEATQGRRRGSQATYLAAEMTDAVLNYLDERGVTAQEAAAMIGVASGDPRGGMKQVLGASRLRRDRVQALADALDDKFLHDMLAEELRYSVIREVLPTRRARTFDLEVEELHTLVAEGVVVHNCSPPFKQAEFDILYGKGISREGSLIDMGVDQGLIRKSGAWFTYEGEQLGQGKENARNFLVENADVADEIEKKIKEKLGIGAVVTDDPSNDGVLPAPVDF

[11] = molecular target: T5, Carboxy-terminal domain RNA polymerase II polypeptide A small phosphatase 1 (Homo sapiens, UniProt Q9GZU7); assay: CTDSP1 inhibitors, concentration-response, biochemical, absorbance readout, ultra-high-throughput screen actives (AID 540297); assay type: functional
T5 sequence (Q9GZU7 whole entry): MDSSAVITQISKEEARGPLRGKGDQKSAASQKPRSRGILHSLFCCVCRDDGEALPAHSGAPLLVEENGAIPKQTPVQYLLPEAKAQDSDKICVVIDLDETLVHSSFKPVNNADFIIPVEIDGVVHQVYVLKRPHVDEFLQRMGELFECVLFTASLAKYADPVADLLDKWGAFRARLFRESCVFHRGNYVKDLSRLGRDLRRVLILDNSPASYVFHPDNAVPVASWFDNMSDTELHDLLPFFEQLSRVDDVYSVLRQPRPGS

[12] = molecular target: T6, Small ubiquitin-related modifier 1 (Homo sapiens, UniProt P63165); assay: SUMO1 protein interaction blockers, potency – biochemical, fluorescence polarization, uHTS hits, dose response (AID 624382); assay type: functional; details: read-out: IC50_Mean
T6 sequence (P63165 whole entry): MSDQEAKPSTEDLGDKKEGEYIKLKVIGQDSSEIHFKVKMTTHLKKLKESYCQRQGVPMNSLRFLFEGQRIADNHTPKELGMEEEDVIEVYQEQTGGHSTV

[13] = molecular target: T6, Small ubiquitin-related modifier 1; assay: SUMO1 protein-protein binding blockers, potency – biochemical, FRET, dose response (AID 624383); assay type: functional; details: read-out: IC50_Mean
Caspase-6 = molecular target: T7, Caspase-6 (Homo sapiens, UniProt P55212); assay: inhibition of CASP6 peptide cleavage – biochemical, VEID-R110 fluorescence, cherry-pick, dose response (AID 720632)
T7 sequence (P55212 whole entry): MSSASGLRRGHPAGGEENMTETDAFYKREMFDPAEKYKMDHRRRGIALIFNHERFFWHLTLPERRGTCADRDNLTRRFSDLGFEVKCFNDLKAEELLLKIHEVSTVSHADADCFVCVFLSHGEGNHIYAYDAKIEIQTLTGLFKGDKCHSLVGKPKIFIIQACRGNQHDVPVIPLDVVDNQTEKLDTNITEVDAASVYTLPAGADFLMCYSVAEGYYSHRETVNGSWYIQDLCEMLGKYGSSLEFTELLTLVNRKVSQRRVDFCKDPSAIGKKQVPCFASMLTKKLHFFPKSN

[14] = molecular target: T8, Corticotropin-releasing factor receptor 2/Corticotropin-releasing factor-binding protein (Homo sapiens, UniProt P24387+Q13324); assay: Dose Response confirmation of uHTS hits for small molecule antagonists of the CRF-binding protein and CRF-R2 receptor complex.; assay type: functional; details: read-out: IC50_Mean
T8 sequence (Q13324 whole entry): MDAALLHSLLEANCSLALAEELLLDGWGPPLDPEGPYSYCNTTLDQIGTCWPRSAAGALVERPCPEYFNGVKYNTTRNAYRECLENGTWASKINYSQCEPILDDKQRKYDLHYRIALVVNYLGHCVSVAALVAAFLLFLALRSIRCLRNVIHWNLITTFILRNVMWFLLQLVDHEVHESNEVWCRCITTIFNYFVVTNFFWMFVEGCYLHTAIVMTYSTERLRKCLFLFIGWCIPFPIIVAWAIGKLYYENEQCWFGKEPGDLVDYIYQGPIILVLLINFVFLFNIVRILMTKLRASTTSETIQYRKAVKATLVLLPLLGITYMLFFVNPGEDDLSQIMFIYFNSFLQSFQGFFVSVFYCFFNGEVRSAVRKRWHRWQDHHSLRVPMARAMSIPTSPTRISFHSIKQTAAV
T8 sequence (P24387 whole entry): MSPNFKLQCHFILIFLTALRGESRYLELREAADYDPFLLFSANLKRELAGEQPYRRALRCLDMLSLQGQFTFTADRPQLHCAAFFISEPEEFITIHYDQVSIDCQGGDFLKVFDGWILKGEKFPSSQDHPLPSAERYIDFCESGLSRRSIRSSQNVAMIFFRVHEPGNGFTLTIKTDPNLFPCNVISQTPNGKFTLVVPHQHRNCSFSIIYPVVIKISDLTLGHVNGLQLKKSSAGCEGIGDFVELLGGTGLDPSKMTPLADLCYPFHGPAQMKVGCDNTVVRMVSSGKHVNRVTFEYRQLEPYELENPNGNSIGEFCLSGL

[15] = molecular target: T8, Corticotropin-releasing factor receptor 2/Corticotropin-releasing factor-binding protein; assay: activators of CRF receptor 2 with binding protein – uHTS hits, confirmation (AID 602473); assay type: functional; details: read-out: EC50_Mean
Beta-galactosidase = Beta-galactosidase (Escherichia coli, UniProt Q8VNN2); assay: Dose response counterscreen for EBI2 assay utilizing the enzyme, b-galactosidase.; assay type: functional
Sequence of Beta-galactosidase (Q8VNN2 whole entry): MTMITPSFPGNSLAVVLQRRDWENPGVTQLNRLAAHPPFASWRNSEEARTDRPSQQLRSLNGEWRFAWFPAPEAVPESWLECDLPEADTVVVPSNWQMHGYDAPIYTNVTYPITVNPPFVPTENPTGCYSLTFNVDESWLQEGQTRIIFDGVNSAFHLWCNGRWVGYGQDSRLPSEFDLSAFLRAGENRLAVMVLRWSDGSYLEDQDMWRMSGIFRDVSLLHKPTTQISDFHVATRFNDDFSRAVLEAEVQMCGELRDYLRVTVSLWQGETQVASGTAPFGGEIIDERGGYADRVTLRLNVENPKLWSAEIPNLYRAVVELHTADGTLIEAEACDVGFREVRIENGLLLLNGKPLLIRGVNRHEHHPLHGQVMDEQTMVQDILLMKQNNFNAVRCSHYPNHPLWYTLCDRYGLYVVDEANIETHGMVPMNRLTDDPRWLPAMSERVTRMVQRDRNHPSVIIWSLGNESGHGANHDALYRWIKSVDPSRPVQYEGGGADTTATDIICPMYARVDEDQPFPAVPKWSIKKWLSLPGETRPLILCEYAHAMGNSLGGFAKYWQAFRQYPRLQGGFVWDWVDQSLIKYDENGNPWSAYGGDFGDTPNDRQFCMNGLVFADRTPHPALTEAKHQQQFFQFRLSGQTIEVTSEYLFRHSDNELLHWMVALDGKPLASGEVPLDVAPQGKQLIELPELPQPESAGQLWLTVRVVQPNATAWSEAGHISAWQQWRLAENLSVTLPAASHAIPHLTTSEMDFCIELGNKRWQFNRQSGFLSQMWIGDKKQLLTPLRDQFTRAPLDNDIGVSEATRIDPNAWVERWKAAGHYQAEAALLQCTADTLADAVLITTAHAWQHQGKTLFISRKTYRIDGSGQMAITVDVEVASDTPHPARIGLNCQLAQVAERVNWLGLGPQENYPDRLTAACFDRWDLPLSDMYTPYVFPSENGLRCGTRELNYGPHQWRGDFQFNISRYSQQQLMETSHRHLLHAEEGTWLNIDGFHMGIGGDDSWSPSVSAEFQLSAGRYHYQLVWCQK

## CCOc1ccc(-c2nnc(SCC(=O)Nc3ccc4c(c3)c3ccccc3n4CC)n2N)cc1
[1]
  EC50: 42.3 µM (active)
[2]
  EC50: > 120 µM (not active)
[3]
  EC50: 11.6 µM (active)
[4]
  AC50: 10.3 µM (active)

## O=C(COc1ccccc1)N1CCc2ccccc2C1
[5]
  IC50: 93.6 µM (inactive)
[6]
  IC50: 23.7 µM (active)

## O=[N+]([O-])c1ccc(N(CCO)CCO)c2c1no[n+]2[O-]
[7]
  EC50: > 91.2 µM (inactive)
[8]
  EC50: > 91.2 µM (inactive)
[9]
  AC50: 4.45 µM (active)

## CC1=NN(c2ccc(Cl)c(C(=O)O)c2)C(=O)C1
[10]
  AC50: 1.88 µM (active)
Protein RecA
  EC50: 2.15 µM (active)
[11]
  IC50: 8.96 µM (active)
[12]
  IC50: > 66.6 µM (inactive)
[13]
  IC50: 9.17 µM (active)
Caspase-6
  AC50: 1.16 µM (active)

## CC(=O)N1CCOc2ccc(S(=O)(=O)N3CCC(C(=O)NCc4ccc(C)cc4)CC3)cc21
[14]
  IC50: > 47.1 µM (inactive)
[15]
  EC50: > 53 µM (inactive)
Beta-galactosidase
  IC50: > 80 µM (inactive)

## CCOC(=O)N1CCN(C(=O)/C=C/c2ccc(OC)cc2)CC1
Beta-galactosidase
  IC50: > 80 µM (inactive)

## CC(C)CSc1nnc(-c2ccco2)n1C
[7]
  EC50: > 91.2 µM (inactive)
[8]
  EC50: > 91.2 µM (inactive)
